Results taken from the supplement of paper PMC7108870.

Columns and labels:
HEK293sieSTAT3(Y640F) [1] = assay: drug sensitivity score (DSS), cytotoxicity CellTox Green (DSS (dimensionless)); higher = more cytotoxic; extreme values may be limits of the assay; details: 72 h; STAT3 variant: Y640F (constitutively active)
Summary of the method: (§1)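 For 72 hours at 37°C and 5% CO2, HEK293 cells overexpressing wild-type or mutant STAT3 and carrying a STAT3-dependent luciferase reporter were cultured on compounds at 5 concentrations in 10-fold dilutions. CellTox Green and then CellTiter-Glo signals were read, normalised to negative and positive control wells, and converted in Breeze into a drug sensitivity score based on dose-response curve area. Values are from one representative of two experiments.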

HEK293sieSTAT3(wt) [2] = assay: as above; details: 72 h; STAT3 variant: wild type
Summary of the method: as §1

HEK293sieSTAT3(Y640F) [3] = assay: drug sensitivity score (DSS), viability CellTiter-Glo (DSS (dimensionless)); higher = more growth inhibition; extreme values may be limits of the assay; details: 72 h; STAT3 variant: Y640F (constitutively active)
Summary of the method: as §1

HEK293sieSTAT3(wt) [4] = assay: as above; details: 72 h; STAT3 variant: wild type
Summary of the method: as §1

| Structure (SMILES) | drug sensitivity score (HEK293sieSTAT3(Y640F) [1]) | drug sensitivity score (HEK293sieSTAT3(wt) [2]) | drug sensitivity score (HEK293sieSTAT3(Y640F) [3]) | drug sensitivity score (HEK293sieSTAT3(wt) [4]) |
| --- | --- | --- | --- | --- |
| O=C(NOCC1CC1)c1ccc(F)c(F)c1Nc1ccc(I)cc1Cl (top concentration tested 10000 nM) | 0 | 0 | 1.63 | 2.33 |
| CCOc1ccn(-c2ccc(F)cc2)c(=O)c1C(=O)Nc1ccc(Oc2ccnc(N)c2Cl)c(F)c1 (top concentration tested 2500 nM) | 0 | 0 | 0.75 | 4.83 |
| C#Cc1cccc(Nc2ncnc3cc(OC)c(OCCCCCCC(=O)NO)cc23)c1 [CUDC-101] (top concentration tested 10000 nM) | 7.69 | 3.02 | 16.1 | 9.59 |
| S=P(N1CC1)(N1CC1)N1CC1 [Thio-TEPA] (top concentration tested 50000 nM) | 0 | 0 | 0.14 | 0.48 |
| COc1ccc2c(OCc3nnc4ccc(-c5ccccc5)nn34)ccnc2c1 [AMG-208] (top concentration tested 2500 nM) | 0.89 | 0.89 | 1.58 | 0.59 |
| Cc1c(Cn2c(C)nc3c(C(=O)O)cc(N4CCOCC4)cc32)cccc1C(F)(F)F (top concentration tested 10000 nM) | 0 | 0.07 | 0.96 | 3 |
| CN(C)Cc1c(C(=O)NCCOc2ccc(C(=O)NO)cc2)oc2ccccc12 [Abexinostat] (top concentration tested 10000 nM) | 10.7 | 17.5 | 22.9 | 22.3 |
| CC(C)[C@H]1C(=O)N[C@@H](CCCNC(=N)N)C(=O)NCC(=O)N[C@@H](CC(=O)O)C(=O)N[C@H](Cc2ccccc2)C(=O)N1C [Cilengitide] (top concentration tested 10000 nM) | 0 | 0 | 0 | 0 |
| COCC[n+]1c2c(n(Cc3cnccn3)c1C)C(=O)c1ccccc1C2=O [YM155] (top concentration tested 10000 nM) | 12.8 | 27.5 | 30.4 | 34.7 |
| C[C@H](Nc1ncnc2nc[nH]c12)c1cc2cccc(Cl)c2c(=O)n1-c1ccccc1 [Duvelisib] (top concentration tested 500 nM) | 0 | 0 | 3.95 | 2.36 |
| COc1cccc(OCCCN)c1-c1cc(Nc2cnc(C#N)cn2)n[nH]1 [Prexasertib] (top concentration tested 10000 nM) | 15.4 | 12.4 | 42.1 | 37 |
| CC(C)[C@@H](CS(=O)(=O)C(C)C)N1C(=O)[C@@](C)(CC(=O)O)C[C@H](c2cccc(Cl)c2)[C@H]1c1ccc(Cl)cc1 [AMG-232] (top concentration tested 1000 nM) | 0 | 0 | 0 | 0 |
| CC(C)C[C@@H](C(=O)N[C@H](C(=O)OC1CCCC1)c1ccccc1)[C@H](O)C(=O)NO [Tosedostat] (top concentration tested 10000 nM) | 1.4 | 8.66 | 3.46 | 6.78 |
| Cc1cc(Nc2cc(N3CCN(C)CC3)nc(Sc3ccc(NC(=O)C4CC4)cc3)n2)n[nH]1 [Tozasertib] (top concentration tested 10000 nM) | 0 | 0.22 | 10.3 | 12.1 |
| COc1ccc(COc2cc3oc(=O)c4cc(C(C)O)ccc4c3cc2OC)cc1 (configuration not stated) [Palomid-529] (top concentration tested 10000 nM) | 0 | 3.06 | 2.18 | 2.21 |
| CC[C@H](CC#N)OC(=O)N[C@@H](C)c1cccc(NC(=O)Nc2ccc(-c3cnco3)c(OC)c2)c1 [AVN944] (top concentration tested 10000 nM) | 1.07 | 6.87 | 17.1 | 20.7 |
| CNC(=O)c1cc(Oc2ccc(NC(=O)Nc3cc(C(C)(C)C)nn3-c3ccc4ncccc4c3)c(F)c2)ccn1 [Rebastinib] (top concentration tested 1000 nM) | 0 | 1.16 | 0 | 0 |
| CCCCNc1ncc(C(=O)NCc2ccc(-n3ccnc3)cc2)c(NC2CCC(O)CC2)n1 (configuration not stated) [UNC2881] (top concentration tested 2500 nM) | 0 | 3.59 | 5.94 | 4.52 |
| C[C@@H]1CN(CC(=O)Nc2ccc3c(c2)Cc2cccc(-c4cc(=O)cc(N5CCOCC5)o4)c2S3)C[C@H](C)O1 (top concentration tested 25000 nM) | 5.17 | 8.78 | 8.24 | 9.16 |
| O=S(=O)(c1cccc2c(O)nccc12)N1CCCNCC1 [Hydroxyfasudil] (top concentration tested 37500 nM) | 0 | 0 | 0.45 | 5.7 |
| C[C@]12CC[C@@H]3c4ccc(OC(=O)N(CCCl)CCCl)cc4CC[C@H]3[C@@H]1CC[C@@H]2O [Estramustine] (top concentration tested 10000 nM) | 0 | 0.3 | 0.65 | 0 |
| CC(C)C(=O)Nc1ccc([N+](=O)[O-])c(C(F)(F)F)c1 [Flutamide] (top concentration tested 10000 nM) | 0 | 0 | 0.25 | 0 |

| Structure (SMILES) | drug sensitivity score (HEK293sieSTAT3(Y640F) [1]) | drug sensitivity score (HEK293sieSTAT3(wt) [2]) | drug sensitivity score (HEK293sieSTAT3(Y640F) [3]) | drug sensitivity score (HEK293sieSTAT3(wt) [4]) |
| --- | --- | --- | --- | --- |
| O=C(CCBr)N1CCN(C(=O)CCBr)CC1 [Pipobroman] (top concentration tested 10000 nM) | 0 | 0 | 6.86 | 1.43 |
| CCc1cc(Nc2nccc(-c3c(-c4ccc(OC)c(C(=O)Nc5c(F)cccc5F)c4)nc4ccccn34)n2)c(OC)cc1N1CCC(N2CCN(S(C)(=O)=O)CC2)CC1 (top concentration tested 10000 nM) | 0 | 0 | 10.9 | 9.73 |
| Cc1ccc(C(=O)Nc2ccc(Oc3cc4cnn(C)c4cc3-c3cn[nH]c3)c(F)c2)c(=O)n1-c1ccc(F)cc1 [Merestinib] (top concentration tested 1000 nM) | 0 | 0 | 4.06 | 1.38 |
| O=C(O)CC[C@H]1CC[C@@](c2cc(F)ccc2F)(S(=O)(=O)c2ccc(Cl)cc2)CC1 [MK-0752] (top concentration tested 1000 nM) | 0 | 0 | 1.59 | 0 |
| C[C@@H]1C[C@H]2O[C@@H]2/C=C\C=C\C(=O)Cc2c(Cl)c(O)cc(O)c2C(=O)O1 [Radicicol] (top concentration tested 10000 nM) | 7.65 | 14.4 | 19.5 | 25.1 |
| CS(=O)(=O)CCNCc1ccc(-c2ccc3ncnc(Nc4ccc(OCc5cccc(F)c5)c(Cl)c4)c3c2)o1 [Lapatinib] (top concentration tested 1000 nM) | 0 | 2.09 | 0 | 0 |
| N#CC1(c2ccc(NC(=O)c3cccnc3NCc3ccncc3)cc2)CCCC1 [Apatinib] (top concentration tested 10000 nM) | 0.2 | 0.3 | 0.11 | 0 |
| O=C(c1ccc(/C=C/c2n[nH]c3ccccc23)cc1)N1CCNCC1 [KW-2449] (top concentration tested 2500 nM) | 0 | 0.89 | 1.97 | 0.3 |
| CN(C)c1nc(N(C)C)nc(N(C)C)n1 [Altretamine] (top concentration tested 10000 nM) | 0 | 0 | 0 | 0 |
| C=CCN(/C=C1/C(=O)O[C@H](COC)[C@@]2(C)C1=C(O)C(=O)C1=C2[C@H](OC(C)=O)C[C@]2(C)C(=O)CC[C@@H]12)CC=C [Sonolisib] (top concentration tested 10000 nM) | 2.34 | 0 | 1.67 | 0.33 |
| CNC(=O)c1ccc(N2C(=S)N(c3ccc(C#N)c(C(F)(F)F)c3)C(=O)C2(C)C)cc1F [Enzalutamide] (top concentration tested 10000 nM) | 0 | 0 | 0.6 | 0 |
| COC(=O)c1ccc2c(c1)[nH]c1ncnc(NCCCN3CCCCC3)c12 [UM729] (top concentration tested 10000 nM) | 0.81 | 4.84 | 8.45 | 6.2 |
| CN1CCN(C2CCN(C(=O)Nc3cc(Oc4ccc(NC(=O)C5(C(=O)Nc6ccc(F)cc6)CC5)c(F)c4)ccn3)CC2)CC1 [Golvatinib] (top concentration tested 2500 nM) | 0 | 0.24 | 2.77 | 1.49 |
| CCN(CC)CCN(Cc1ccc(-c2ccc(C(F)(F)F)cc2)cc1)C(=O)Cn1c(SCc2ccc(F)cc2)nc(=O)c2c1CCC2 [Darapladib] (top concentration tested 1000 nM) | 1.32 | 0.65 | 1.89 | 1.03 |
| COc1cccc2c1C(=O)c1c(O)c3c(c(O)c1C2=O)C[C@@](O)(/C(CO)=N/NC(=O)CCCCCN1C(=O)C=CC1=O)C[C@@H]3O[C@H]1C[C@H](N)[C@H](O)[C@H](C)O1 [Aldoxorubicin] (top concentration tested 1000 nM) | 0 | 0 | 19.7 | 21.1 |
| CCc1cnn2c(NCc3ccc[n+]([O-])c3)cc(N3CCCC[C@H]3CCO)nc12 [Dinaciclib] (top concentration tested 1000 nM) | 7.03 | 24.6 | 27.9 | 28.8 |
| COc1cc2nccc(Oc3ccc(NC(=O)Nc4cc(C)on4)c(Cl)c3)c2cc1OC [Tivozanib] (top concentration tested 10000 nM) | 0 | 1.14 | 4.07 | 4.13 |
| Cc1nc(N)sc1-c1ccnc(Nc2ccc(N3CCOCC3)cc2)n1 [CYC-116] (top concentration tested 10000 nM) | 0 | 0.48 | 8.51 | 9.72 |
| CO[C@H]1C[C@@H]2CC[C@@H](C)[C@@](O)(O2)C(=O)C(=O)N2CCCC[C@H]2C(=O)O[C@H]([C@H](C)C[C@@H]2CC[C@@H](OP(C)(C)=O)[C@H](OC)C2)CC(=O)[C@H](C)/C=C(\C)[C@@H](O)[C@@H](OC)C(=O)[C@H](C)C[C@H](C)/C=C/C=C/C=C/1C [Ridaforolimus] (top concentration tested 100 nM) | 0 | 0 | 8.94 | 13.9 |
| Cc1cc(Nc2ncc(Cl)c(Nc3ccccc3S(=O)(=O)C(C)C)n2)c(OC(C)C)cc1C1CCNCC1 [Ceritinib] (top concentration tested 2500 nM) | 0 | 0.89 | 0.86 | 1.05 |
| CC[C@H](C)C(=O)O[C@H]1C[C@@H](C)C=C2C=C[C@H](C)[C@H](CC[C@@H]3C[C@@H](O)CC(=O)O3)[C@H]21 [Lovastatin] (top concentration tested 10000 nM) | 0 | 0 | 0 | 0.12 |
